From patent publication US20130252935A1, “Monobactams” (PFIZER INC., priority 2010, published 2013) come the findings set out here.

What all share (assay type): cell-based
The subject of assay [1] is Acinetobacter baumannii/haemolyticus AB-3167. Nature of the assay: minimum inhibitory concentration (MIC) testing according to CLSI guidelines, Acinetobacter. As to conditions: multidrug-resistant clinical isolate AB-3167, overnight incubation, lower of duplicate values; for MIC: Acinetobacter baumannii, read-out: AB-MBT: Acinetobacter baumanii AB-3167: MIC (MstRcnt). As to the method: (§1) In order to assess the compounds biological activity, the in vitro anti-bacterial activity of selected compounds described in the Examples 1-69 was evaluated by minimum inhibitory concentration (MIC) testing according to Clinical and Laboratory Standards Institute (CLSI, formerly NCCLS) guidelines. See: Clinical and Laboratory Standards Institute. Methods for Dilution Antimicrobial Susceptibility Tests for Bacteria that Grow Aerobically; Approved Standard-Eighth Edition. CLSI document M7-A8 [ISBN 1-56238-689-1]. Clinical and Laboratory Standards Institute, 940 West Valley Road, Suite 1400, Wayne, Pa. 19087-1898 USA, 2006; also Clinical and Laboratory Standards Institute. Performance Standards for Antimicrobial Susceptibility Testing; Twentieth Informational Supplement. CLSI document M100-S20 [ISBN1-56238-716-2]. Clinical and Laboratory Standards Institute.
(§2) The MIC determination is a standard laboratory method for evaluating the antibacterial activity of a compound. The MIC represents the lowest drug concentration that inhibits visible growth of bacteria following overnight incubation. […] Typically, the drug concentration range is broken down into 2-fold increments (e.g. 0.06 μg/mL, 0.12 μg/mL. 0.25 μg/mL, 0.50 μg/mL, 1.0 μg/mL, etc.) and the various drug concentrations are all individually incubated overnight with approximately the same number of bacteria. The MIC is then determined by visually inspecting the drug effect at each concentration, and identifying the lowest drug concentration that has inhibited bacterial growth as compared to the drug free control. Typically, bacteria continue to grow at drug concentrations lower than the MIC and don't grow at concentrations at and above the MIC.
(§3) The MIC values described in Table 1 below were derived from assays wherein each test compound was evaluated in duplicate. In cases where the duplicate values varied by 0-2-fold, the lower of the two values was reported below. Generally speaking, if the duplicate values varied by more than 2-fold, the assay was considered non-valid and was repeated until the variation between duplicate runs was ≦2-fold. In line with the CLSI guidelines referred to above, both control organisms and reference compounds were utilized in each MIC assay to provide proper quality control. MIC values generated with these control organisms and reference compounds were required to fall within a defined range for the assay to be considered valid and be included herein. Those skilled in the art will recognize that MIC values can and do vary from experiment to experiment. Generally speaking, it should be recognized that MIC values often vary +/−2-fold from experiment to experiment. While a single MIC is reported for each compound and each microorganism, the reader should not conclude that each compound was only tested once. Several of the compounds were subjected to multiple tests. The data reported in Table 1 is reflective of the compounds relative activity and different MICs may have been generated on these occasions in light with the guidelines described above.
(§4) The following bacterial strains were used in these MIC determinations:
3) Acinetobacter baumannii/haemolyticus: Multidrug-resistant clinical isolate, labeled as AB-3167.

Assay [2] relates to Pseudomonas aeruginosa UC-12120. Nature of the assay: minimum inhibitory concentration (MIC) testing according to CLSI guidelines, Pseudomonas aeruginosa. As to conditions: UC-12120, wild-type, labeled as 1091-05, overnight incubation, lower of duplicate values; for MIC: Pseudomonas aeruginosa, UC12120, read-out: AB-MBT: Pseudomonas aeruginosa 1091-05: MIC (MstRcn). How it is done: as §1, §2, §3, §4
1) Pseudomonas aeruginosa UC-12120: Wild-type, labeled as 1091-05;

In assay [3] the test system is Klebsiella pneumoniae 1000-02. Nature of the assay: minimum inhibitory concentration (MIC) testing according to CLSI guidelines, Klebsiella pneumoniae. As to conditions: ciprofloxacin-resistant, ESBL-expressing clinical isolate 1000-02, overnight incubation, lower of duplicate values; for MIC: Klebsiella pneumoniae, read-out: AB-MBT: Klebsiella pneumoniae 1000-02: MIC (MstRcnt). As to the method:
as §1, §2, §3, §4
2) Klebsiella pneumoniae: Ciprofloxacin-resistant isolate, expresses extended-spectrum beta-lactamases (ESBL), clinical isolate, labeled as 1000-02;

Values after ≈ are worked out from the molar mass of the structure shown.

For `CC(C)(O/N=C(\C(=O)N[C@@H]1C(=O)N(S(=O)(=O)O)[C@@H]1CNC(=O)c1cccc(C(=O)NCc2cc(=O)c(O)cn2O)c1)c1csc(N)n1)C(=O)O` [Example 44, 2-({[(1Z)-1-(2-amino-1,3-thiazol-4-yl)-2-{[(2R,3S)-2-{[(3-{[(1,5-dihydroxy-4-oxo-1,4-dihydropyridin-2-yl)methyl]carbamoyl}benzoyl)amino]methyl}-4-oxo-1-sulfoazetidin-3-yl]amino}-2-oxoethylidene]amino}oxy)-2-methylpropanoic acid], the MIC in assay [1], in assay [2] and in assay [3] was 0.25 µg/mL (≈ 0.339 µM) in each case.

On to `CC(C)(O/N=C(\C(=O)N[C@@H]1C(=O)N(S(=O)(=O)O)[C@@H]1CNc1ccc(C(=O)NCc2cc(=O)c(O)cn2O)cn1)c1csc(N)n1)C(=O)O` [Example 46, 2-({[(1Z)-1-(2-amino-1,3-thiazol-4-yl)-2-{[(2R,3S)-2-{[(5-{[(1,5-dihydroxy-4-oxo-1,4-dihydropyridin-2-yl)methyl]carbamoyl}pyridin-2-yl)amino]methyl}-4-oxo-1-sulfoazetidin-3-yl]amino}-2-oxoethylidene]amino}oxy)-2-methylpropanoic acid], for which the values for the MIC in assay [1], in assay [2] and in assay [3] were 0.5 µg/mL (≈ 0.705 µM), 0.25 µg/mL (≈ 0.352 µM) and 2 µg/mL (≈ 2.82 µM), respectively.

As for `CC(C)(O/N=C(\C(=O)N[C@@H]1C(=O)N(S(=O)(=O)O)[C@@H]1COC(=O)CNC(=O)c1cc(=O)c(O)cn1O)c1csc(N)n1)C(=O)O` [Example 7, 2-({[(1Z)-1-(2-amino-1,3-thiazol-4-yl)-2-({(2S,3S)-2-[({N-[(1,5-dihydroxy-4-oxo-1,4-dihydropyridin-2-yl)carbonyl]glycyl}oxy)methyl]-4-oxo-1-sulfoazetidin-3-yl}amino)-2-oxoethylidene]amino}oxy)-2-methylpropanoic acid], the figures for the MIC in assay [1], in assay [2] and in assay [3] were 0.5 µg/mL (≈ 0.756 µM), 0.125 µg/mL (≈ 0.189 µM) and 8 µg/mL (≈ 12.1 µM), respectively.

Turning to `Nc1nc(/C(=N/OC2(C(=O)O)CCC2)C(=O)N[C@@H]2C(=O)N(S(=O)(=O)O)[C@@H]2CNC(=O)c2cc(=O)c(O)cn2O)cs1` [Example 58, 1-({[(1Z)-1-(2-amino-1,3-thiazol-4-yl)-2-{[(2R,3S)-2-({[(1,5-dihydroxy-4-oxo-1,4-dihydropyridin-2-yl)carbonyl]amino}methyl)-4-oxo-1-sulfoazetidin-3-yl]amino}-2-oxoethylidene]amino}oxy)cyclobutanecarboxylic acid], the figures for the MIC in assay [1], in assay [2] and in assay [3] were 0.25 µg/mL (≈ 0.406 µM), 0.25 µg/mL (≈ 0.406 µM) and 0.06 µg/mL (≈ 0.0975 µM), respectively.

Consider `CC(C)(O/N=C(\C(=O)N[C@@H]1C(=O)N(S(=O)(=O)O)[C@@H]1CNC(=O)c1ccc(S(=O)(=O)NCc2cc(=O)c(O)cn2O)cc1)c1csc(N)n1)C(=O)O` [Example 39], for which, in assay [1], the “AB-MBT: Acinetobacter baumanii AB-3167: MIC (MstRcnt)” value amounted to 0.500 µg/mL. Further, the “AB-MBT: Pseudomonas aeruginosa 1091-05: MIC (MstRcn)” value in assay [2] was determined as 0.250 µg/mL. Also, the “AB-MBT: Klebsiella pneumoniae 1000-02: MIC (MstRcnt)” value in assay [3] was 1.00 µg/mL.

Regarding `Nc1nc(/C(=N/OC2(C(=O)O)CCC2)C(=O)N[C@@H]2C(=O)N(S(=O)(=O)O)[C@@H]2CNC(=O)c2ccc(CNC(=O)c3cc(=O)c(O)cn3O)cc2)cs1` [Example 62, 1-({[(1Z)-1-(2-amino-1,3-thiazol-4-yl)-2-{[(2R,3S)-2-({[4-({[(1,5-dihydroxy-4-oxo-1,4-dihydropyridin-2-yl)carbonyl]amino}methyl)benzoyl]amino}methyl)-4-oxo-1-sulfoazetidin-3-yl]amino}-2-oxoethylidene]amino}oxy)cyclobutanecarboxylic acid], the MIC in assay [1] worked out at 0.5 µg/mL (≈ 0.668 µM); in assay [2], 2 µg/mL (≈ 2.67 µM); in assay [3], 1 µg/mL (≈ 1.34 µM).

On to `CC(C)(O/N=C(\C(=O)N[C@@H]1C(=O)N(S(=O)(=O)O)[C@@H]1COC(=O)c1ccnc(-c2cc(=O)c(O)c[nH]2)n1)c1csc(N)n1)C(=O)O` [Example 21, 2-({[(1Z)-1-(2-amino-1,3-thiazol-4-yl)-2-({(2S,3S)-2-[({[2-(5-hydroxy-4-oxo-1,4-dihydropyridin-2-yl)pyrimidin-4-yl]carbonyl}oxy)methyl]-4-oxo-1-sulfoazetidin-3-yl}amino)-2-oxoethylidene]amino}oxy)-2-methylpropanoic acid], for which the MIC in assay [1] is above 64 µg/mL; in assay [2] it was 8 µg/mL (≈ 12 µM); in assay [3], 64 µg/mL (≈ 96 µM).

For `CC(C)(O/N=C(\C(=O)N[C@@H]1C(=O)N(S(=O)(=O)O)[C@@H]1CNC(=O)Cc1ccc(NC(=O)c2cc(=O)c(O)cn2O)cc1)c1csc(N)n1)C(=O)O` [Example 45, 2-({[(1Z)-1-(2-amino-1,3-thiazol-4-yl)-2-{[(2R,3S)-2-({[(4-{[(1,5-dihydroxy-4-oxo-1,4-dihydropyridin-2-yl)carbonyl]amino}phenyl)acetyl]amino}methyl)-4-oxo-1-sulfoazetidin-3-yl]amino}-2-oxoethylidene]amino}oxy)-2-methylpropanoic acid], the results for the MIC in assay [1], in assay [2] and in assay [3] were 0.5 µg/mL (≈ 0.679 µM), 0.5 µg/mL (≈ 0.679 µM) and 4 µg/mL (≈ 5.43 µM), respectively.

On to `Nc1nc(/C(=N/OC2(C(=O)O)CCC2)C(=O)N[C@@H]2C(=O)N(S(=O)(=O)O)[C@@H]2CNC(=O)c2cccc(C(=O)NCc3cc(=O)c(O)cn3O)c2)cs1` [Example 64, 1-({[(1Z)-1-(2-amino-1,3-thiazol-4-yl)-2-{[(2R,3S)-2-{[(3-{[(1,5-dihydroxy-4-oxo-1,4-dihydropyridin-2-yl)methyl]carbamoyl}benzoyl)amino]methyl}-4-oxo-1-sulfoazetidin-3-yl]amino}-2-oxoethylidene]amino}oxy)cyclobutanecarboxylic acid], for which the minimal inhibitory concentration (MIC) in assay [1] worked out at 0.5 µg/mL (≈ 0.668 µM); in assay [2], 1 µg/mL (≈ 1.34 µM); in assay [3], 0.25 µg/mL (≈ 0.334 µM).

On to `Nc1nc(/C(=N/OC2(C(=O)O)CCCCC2)C(=O)N[C@@H]2C(=O)N(S(=O)(=O)O)[C@@H]2CNC(=O)NCc2cc(=O)c(O)cn2O)cs1` [Example 28, 1-({[(1Z)-1-(2-amino-1,3-thiazol-4-yl)-2-({(2R,3S)-2-[({[(1,5-dihydroxy-4-oxo-1,4-dihydropyridin-2-yl)methyl]carbamoyl}amino)methyl]-4-oxo-1-sulfoazetidin-3-yl}amino)-2-oxoethylidene]amino}oxy)cyclohexanecarboxylic acid], for which the MIC came out at 1 µg/mL (≈ 1.49 µM) in assay [1], 1 µg/mL (≈ 1.49 µM) in assay [2] and 0.5 µg/mL (≈ 0.743 µM) in assay [3].

On to `CC(C)(O/N=C(\C(=O)N[C@@H]1C(=O)N(S(=O)(=O)[O-])[C@@H]1CNC(=O)c1cc(=O)c(O)cn1O)c1csc(N)n1)C(=O)[O-].[Na+].[Na+]` [Example 11, 2-({[(1Z)-1-(2-amino-1,3-thiazol-4-yl)-2-{[(2R,3S)-2-({[(1,5-dihydroxy-4-oxo-1,4-dihydropyridin-2-yl)carbonyl]amino}methyl)-4-oxo-1-sulfoazetidin-3-yl]amino}-2-oxoethylidene]amino}oxy)-2-methylpropanoic acid, disodium salt], for which the MIC in assay [1] was 1 µg/mL; in assay [2], 0.5 µg/mL; in assay [3] it was 0.06 µg/mL.

For `CC(C)(O/N=C(\C(=O)N[C@@H]1C(=O)N(S(=O)(=O)O)[C@@H]1CNC(=O)NCc1cc(=O)c(O)cn1O)c1csc(N)n1)C(=O)O` [Example 4, 2-({[(1Z)-1-(2-amino-1,3-thiazol-4-yl)-2-({(2R,3S)-2-[({[(1,5-dihydroxy-4-oxo-1,4-dihydropyridin-2-yl)methyl]carbamoyl}amino)methyl]-4-oxo-1-sulfoazetidin-3-yl}amino)-2-oxoethylidene]amino}oxy)-2-methylpropanoic acid], the MIC in assay [1] turned out to be 0.5 µg/mL (≈ 0.79 µM); in assay [2] it was 0.125 µg/mL (≈ 0.198 µM); in assay [3], 0.125 µg/mL (≈ 0.198 µM).
